The source of these data is patent US8754242B2, “Herbicides” (Syngenta Crop Protection LLC, priority 2007, dated 2014).

Common to all, as to assay type: in vivo
For assay [1], the system named is Echinochloa crus-galli (ECHCG). The assay can be described thus: Test Example 1 pre-emergence herbicidal activity. The note with it: Echinochloa crus-galli, 480 h, rate 250 g/ha, evaluated 20 days later, read-out: Pre-emergence activity ECHCG (100=total damage to plant; 0=no damage to plant). Summed up:
(§1)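 Plants sown in standard soil in pots; sprayed 1 day after sowing (pre-emergence) or after 10 days' glasshouse cultivation (post-emergence) with aqueous spray of compound formulated in acetone plus Emulsogen EL/N-methylpyrrolidone/dipropylene glycol monomethyl ether/X-77 solution. Damage scored 0–100 (100 = total damage) after 20 days (pre) or 15 days (post).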

Assay [2] concerns Lolium perenne (LOLPE). The assay can be described thus: Test Example 1 pre-emergence herbicidal activity. The note with it: Lolium perenne, 480 h, rate 250 g/ha, evaluated 20 days later, read-out: Pre-emergence activity LOLPE (100=total damage to plant; 0=no damage to plant). The method, boiled down: as §1
Assay [3] has as its system Avena fatua (AVEFA). The assay can be described thus: Test Example 1 pre-emergence herbicidal activity. The note with it: Avena fatua, 480 h, rate 250 g/ha, evaluated 20 days later, read-out: Pre-emergence activity AVEFA (100=total damage to plant; 0=no damage to plant). Summed up:
as §1

In assay [4] the test system is Digitaria sanguinalis (DIGSA). The assay can be described thus: Test Example 1 pre-emergence herbicidal activity. The note with it: Digitaria sanguinalis, 480 h, rate 250 g/ha, evaluated 20 days later, read-out: Pre-emergence activity DIGSA (100=total damage to plant; 0=no damage to plant). Summed up:
as §1

Assay [5] has as its system Setaria faberi (SETFA). As to the kind of experiment: Test Example 1 pre-emergence herbicidal activity. The note with it: Setaria faberi, 480 h, rate 250 g/ha, evaluated 20 days later, read-out: Pre-emergence activity SETFA (100=total damage to plant; 0=no damage to plant). Summed up: as §1
Assay [6] relates to Alopecurus myosuroides (ALOMY). As to the kind of experiment: Test Example 1 pre-emergence herbicidal activity. The note with it: Alopecurus myosuroides, 480 h, rate 250 g/ha, evaluated 20 days later, read-out: Pre-emergence activity ALOMY (100=total damage to plant; 0=no damage to plant). Summed up: as §1
Assay [7] relates to Echinochloa crus-galli (ECHCG). As to the kind of experiment: Test Example 1 post-emergence herbicidal activity. The note with it: 360 h, rate 125 g/ha, evaluated 15 days later, read-out: Post-emergence activity ECHCG (100=total damage to plant; 0=no damage to plant). The method, boiled down: as §1
Assay [8] deals with Lolium perenne (LOLPE). The assay can be described thus: Test Example 1 post-emergence herbicidal activity. The note with it: 360 h, rate 125 g/ha, evaluated 15 days later, read-out: Post-emergence activity LOLPE (100=total damage to plant; 0=no damage to plant). The method, boiled down: as §1
Assay [9] relates to Avena fatua (AVEFA). The assay can be described thus: Test Example 1 post-emergence herbicidal activity. The note with it: 360 h, rate 125 g/ha, evaluated 15 days later, read-out: Post-emergence activity AVEFA (100=total damage to plant; 0=no damage to plant). The method, boiled down:
as §1

Assay [10] deals with Digitaria sanguinalis (DIGSA). The assay can be described thus: Test Example 1 post-emergence herbicidal activity. The note with it: 360 h, rate 125 g/ha, evaluated 15 days later, read-out: Post-emergence activity DIGSA (100=total damage to plant; 0=no damage to plant). Summed up:
as §1

The subject of assay [11] is Setaria faberi (SETFA). As to the kind of experiment: Test Example 1 post-emergence herbicidal activity. The note with it: 360 h, rate 125 g/ha, evaluated 15 days later, read-out: Post-emergence activity SETFA (100=total damage to plant; 0=no damage to plant). Summed up:
as §1

In assay [12] the test system is Alopecurus myosuroides (ALOMY). As to the kind of experiment: Test Example 1 post-emergence herbicidal activity. The note with it: 360 h, rate 125 g/ha, evaluated 15 days later, read-out: Post-emergence activity ALOMY (100=total damage to plant; 0=no damage to plant). The method, boiled down:
as §1

Structures are written as SMILES.

In the case of `CCc1cc(C)cc(CC)c1C1=C(O)[C@@H]2[C@@H]3O[C@@H](C[C@H]3c3ccc(F)cc3F)[C@@H]2C1=O` [Example T163], the pest or weed control at 250 g/ha in assay [1] was found to be 80%; in [2] it was 90%; in assay [3], 60%; in assay [4] it was 90%; in assay [5], 90%; in assay [6], 70%. The pest or weed control at 125 g/ha in [7] came out at 100%; in assay [8] it was 80%; in assay [9] it was 80%; in assay [10], 70%; in assay [11] it was 90%; in assay [12], 80%.
`CCC1=NOC2C1[C@@H]1O[C@H]2[C@H]2C(O)=C(c3c(CC)cc(C)cc3CC)C(=O)[C@H]21` (stereo partly drawn) [Example T15]: the pest or weed control at 250 g/ha in [1] stood at 80%; in assay [2] it was 40%; in assay [3], 20%; in assay [4], 30%; in [5] it was 60%; in assay [6], 40%. Besides, the pest or weed control at 125 g/ha in assay [7] is 80%; in [8], 40%; in [9], 40%; in assay [10] it was 80%; in [11], 50%; in assay [12], 50%.
With `CCc1cc(CC)c(C2=C(O)[C@H]3[C@@H](C2=O)[C@@H]2CC[C@H]3O2)c(CC)c1` [Example T5], the pest or weed control at 250 g/ha in assay [1] was 100%; in [2] it was 100%; in assay [3], 80%; in assay [4], 100%; in [5], 80%; in [6], 100%. Further, the pest or weed control at 125 g/ha came out at 100% in [7]; 80% in [8]; 70% in [9]; 100% in assay [10]; 90% in assay [11]; 70% in assay [12].
Regarding `Cc1cc(C)c(C2=C(OC(=O)C3CC3)[C@H]3[C@@H](C2=O)[C@@H]2CC[C@H]3O2)c(C)c1` (racemic) [Example P5], the pest or weed control at 250 g/ha came out at 90% in [1]; 100% in assay [2]; 100% in [3]; 100% in assay [4]; 90% in assay [5]; 100% in [6]. Moreover, the pest or weed control at 125 g/ha in [7] was 100%; in assay [8], 100%; in assay [9] it was 90%; in assay [10], 60%; in [11] it was 80%; in assay [12], 100%.
For `CC[C@H]1C[C@@H]2O[C@H]1[C@H]1C(O)=C(c3c(C)cc(C)cc3C)C(=O)[C@H]12` [Example T107], the pest or weed control at 250 g/ha in assay [1] is 100%; in assay [2] it was 100%; in assay [3], 90%; in assay [4], 100%; in assay [5], 100%; in [6], 90%. The pest or weed control at 125 g/ha in assay [7] amounted to 100%; in assay [8], 90%; in assay [9], 90%; in assay [10], 100%; in [11], 100%; in assay [12], 100%.
Consider `Cc1cc(C)c(C2=C(O)C3C(C2=O)[C@@H]2CC(CO)[C@@]3(C)O2)c(C)c1` (stereo partly drawn) [Example T62], for which the pest or weed control at 250 g/ha in assay [1] turned out to be 80%; in assay [2] it was 60%; in assay [3], 70%; in assay [4], 80%; in assay [5], 80%; in [6] it was 70%. For the same molecule, the pest or weed control at 125 g/ha was 80% in assay [7]; 20% in assay [8]; 0% in [9]; 70% in assay [10]; 70% in [11]; 60% in assay [12].
For `CCc1cc(C)cc(CC)c1C1=C(O)[C@@H]2[C@@H]3O[C@@H](C[C@H]3c3ccc(OC(F)(F)F)cc3)[C@@H]2C1=O` (racemic) [Example T159], the pest or weed control at 250 g/ha in [1] amounted to 70%; in assay [2], 40%; in [3], 60%; in assay [4], 70%; in assay [5], 70%; in assay [6], 50%. For the same molecule, the pest or weed control at 125 g/ha in assay [7] amounted to 100%; in [8], 40%; in assay [9], 70%; in assay [10], 100%; in assay [11], 100%; in assay [12], 90%.
Regarding `Cc1cc(C)c(C2=C(O)[C@@H]3[C@@H]4O[C@@H](C[C@H]4c4ccc(F)nc4)[C@@H]3C2=O)c(C)c1` [Example T129], the pest or weed control at 250 g/ha in [1] worked out at 100%; in [2], 90%; in [3], 90%; in [4] it was 90%; in assay [5], 100%; in assay [6], 100%. Besides, the pest or weed control at 125 g/ha in [7] was 100%; in [8] it was 70%; in [9], 80%; in assay [10] it was 80%; in assay [11] it was 100%; in [12], 80%.
Turning to `CCc1cc(C)cc(CC)c1C1=C(O)[C@@H]2[C@@H]3O[C@@H](C[C@H]3c3ccc(C#N)cc3)[C@@H]2C1=O` [Example T160], the pest or weed control at 250 g/ha in assay [1] was determined as 40%; in [2], 40%; in [3] it was 50%; in assay [4], 40%; in assay [5], 70%; in assay [6], 30%. Also, the pest or weed control at 125 g/ha in [7] was determined as 100%; in assay [8], 70%; in assay [9], 90%; in [10] it was 100%; in assay [11], 100%; in assay [12], 90%.
As to `CCc1cc(C)cc(CC)c1C1=C(OC(=O)C(C)(C)C)[C@H]2[C@@H](C1=O)[C@@H]1CC[C@H]2O1` (racemic) [Example P14], the pest or weed control at 250 g/ha in assay [1], in assay [2], in assay [3], in assay [4], in assay [5] and in assay [6] was 100% throughout. For the same molecule, the pest or weed control at 125 g/ha in [7] was 100%; in assay [8], 90%; in [9], 90%; in assay [10] it was 100%; in assay [11], 100%; in [12], 90%.
